Laboratory results reported in patent US20110105496A1, “Methods For The Treatment Of Myosin Heavy Chain-Mediated Conditions Using 4,7-Dihydrothieno[2,3-B]Pyridine Compounds” (priority 2005, published 2011).
Read-outs that look alike come from different tables or passages of the source.

Test system: alpha-MyHC
Assay: alpha-MyHC cytoblot process in neonatal rat ventricular myocytes (NRVM)
Format: cell-based
Procedure: In vitro activity of each compound is measured using the alpha-MyHC cytoblot process. Briefly, neonatal rat ventricular myocytes (NRVM) at 120,000 cells/ml in HyQ DME/High modified culture media supplemented with 10% charcoal/dextran treated FBS, 0.1% Nutridoma-SP, 1:100 MEM non-essential amino acids, 1:50 MEM amino acids solution w/o L-Gln, 1 mM sodium pyruvate and 1:100 P/S/G, are plated on gelatin coated sterile 384-well plates (Costar 3712) at 6,000 cells per well. Cells are incubated overnight at 37° C. in 5% CO2 100% humidity. Following overnight growth the media is changed to HyQ DME/High modified culture media supplemented with 0.3% Nutridoma-SP, 1:100 MEM non-essential amino acids, 1:50 MEM amino acids solution w/o L-Gln, 1 mM sodium pyruvate and 1:100 P/S/G. Cells are then dosed with serial dilutions of each compound in DMSO. Each concentration in the dose range is dosed in quadruplicate. Dosing is done in such a way so that the final DMSO concentration was 0.44%. Compound dilutions are 3-fold with the final top concentration of 10 uM. […] Following dosing, the cells are incubated for 72 hours at 37° C. in 5% CO2 100% humidity and then processed with the cytoblot method. Briefly, cell media is aspirated and cell monolayers washed with PBS and fixed with 100% methanol for 30 minutes. Fixed cells are then blocked with PBS, 0.05% Tween-20, 1% BSA, for 1 hour. Following blocking, cells are incubated with primary alpha-MyHC-specific antibody antibody (1:30 dilution of BA-G5 hybridoma conditioned media, ATCC HB276) for 1 hour. Following incubation with the primary antibody, cells are washed with PBS, 0.05% Tween-20, 1% BSA and incubated with secondary antibody (1:1000 dilution, goat-anti-mouse HRP, Southern Biotech, 1031-05) for 1 hour. Following incubation with the secondary antibody, wells are washed and incubated in SuperSignal, West Dura HRP-luminescence substrate for 30 seconds under shaking at room temperature. Luminescence is measured using a Packard Fusion plate reader. […] RLU values are converted into per cent fraction of low control and dose responses are fitted to a sigmoidal 4-parameter equation (XLFit, IDBS) where the EC50 and Max Plateau values were extracted. […] Max Plateau is the […] maximum value determined by the dose response fit.

[1] = Table 2 (esters), NRVM, 72 hours, alpha-MyHC cytoblot
[2] = Table 2 (esters), NRVM, 72 hours, maximum of dose response fit
[3] = Table 3 (amides), NRVM, 72 hours, alpha-MyHC cytoblot
[4] = Table 3 (amides), NRVM, 72 hours, maximum of dose response fit
[5] = Table 1, NRVM, 72 hours, alpha-MyHC cytoblot, mean ± spread
[6] = Table 1, NRVM, 72 hours, maximum of dose response fit, low control = vehicle only

SMILES	Max Plateau [2]	EC50 [5]	Max Plateau [6]	further results
CCC(=O)C1=C(CC)Nc2sc(C(=O)c3ccc(Cl)c(Cl)c3)c(N)c2C1c1ccccc1F (racemic) [Compound 39, 1-[3-amino-2-(3,4-dichloro-benzoyl)-6-ethyl-4-(2-fluoro-phenyl)-4,7-dihydro-thieno[2,3b]pyridin-5-yl]-propan-1-one]	–	–	–	EC50 (Rattus norvegicus, Ventricular myocyte, Table 1, NRVM, 72 hours, alpha-MyHC cytoblot, mean ± spread): 17.1 nM; Emax (Rattus norvegicus, Ventricular myocyte, Table 1, NRVM, 72 hours, maximum of dose response fit, low control = vehicle only, read-out: Max Plateau): 273 ± 37.3%
CCC1=C(C(=O)OC)C(c2ccnc(F)c2)c2c(sc(C(=O)c3cccc(Cl)c3)c2N)N1 (racemic) [Compound 175]	289.91 per cent fraction of low control	–	–	EC50 [1]: 0.183 nM
COC(=O)C1=C(C2CC2)Nc2sc(C(=O)c3cccc(Cl)c3)c(N)c2C1c1ccnc(F)c1 (racemic) [Compound 176]	218.25 per cent fraction of low control	–	–	EC50 [1]: 42.1 nM
COC(=O)C1=C(C(C)C)Nc2sc(C(=O)c3cccc(C#N)c3)c(N)c2C1c1ccccc1F (racemic) [Compound 177]	162.75 per cent fraction of low control	–	–	EC50 [1]: 796 nM
CCC1=C(C(=O)OCCOC)C(c2ccccc2F)c2c(sc(C(=O)c3cccc(C#N)c3)c2N)N1 (racemic) [Compound 178]	258.67 ± 45.31 per cent fraction of low control	–	–	–
CCC1=C(C(=O)OCCOC)C(c2ccnc(F)c2)c2c(sc(C(=O)c3cccc(C#N)c3)c2N)N1 (racemic) [Compound 192]	237.07 ± 13.03 per cent fraction of low control	–	–	–
CCOC(=O)C1=C(CC)Nc2sc(C(=O)c3ccc(F)c(CC(=O)OC)c3)c(N)c2C1c1ccccc1 (racemic) [Compound 194]	188.67 per cent fraction of low control	–	–	EC50 [1]: 247 nM
CCNC(=O)C1=C(C)Nc2sc(C(=O)c3ccc(Cl)c(Cl)c3)c(N)c2C1c1ccccc1 (racemic) [Compound 195]	–	–	–	EC50 [3]: 337000 nM; Max Plateau [4]: 126.67 ± 23.09 per cent fraction of low control
CCCCNC(=O)C1=C(C)Nc2sc(C(=O)c3ccc(Cl)c(Cl)c3)c(N)c2C1c1ccccc1 (racemic) [Compound 196]	–	–	–	EC50 [3]: 334000 nM; Max Plateau [4]: 121.93 ± 25.12 per cent fraction of low control
COCCOCN1C(C)=C(C(C)=O)C(c2ccccc2)c2c1sc(C(=O)c1ccccc1)c2N (racemic) [Compound 209]	–	–	–	EC50 (Table 5 (R^4 substituted), NRVM, 72 hours, alpha-MyHC cytoblot): 393 nM; Max Plateau (Table 5 (R^4 substituted), NRVM, 72 hours, maximum of dose response fit): 192.74 per cent fraction of low control
CC1=C(C(=O)OCCN)C(c2ccccc2)c2c(sc(C(=O)c3ccc(Cl)c(Cl)c3)c2N)N1 (racemic) [compound 213]	–	–	–	EC50: 326 nM; Max Plateau: 208.56 ± 23.45
CCC1=C(C(=O)OC(C)CC)C(c2ccccc2F)c2c(sc(C(=O)c3ccc(Cl)c(Cl)c3)c2N)N1 (single isomer, unassigned) [Compound 162]	183.22 per cent fraction of low control	–	–	EC50 [1]: 197 nM
CCC1=C(C(=O)OC(C)CC)C(c2ccccc2F)c2c(sc(C(=O)c3ccc(Cl)c(Cl)c3)c2N)N1 (single isomer, unassigned) [Compound 163]	224.85 per cent fraction of low control	–	–	EC50 [1]: 142 nM
CCC1=C(C(=O)OC(C)CC)C(c2ccccc2F)c2c(sc(C(=O)c3cccc(C#N)c3)c2N)N1 (single isomer, unassigned) [Compound 165]	250.83 per cent fraction of low control	–	–	EC50 [1]: 12 nM
CCC1=C(C(=O)OC(C)CC)C(c2ccccc2F)c2c(sc(C(=O)c3cccc(C#N)c3)c2N)N1 (single isomer, unassigned) [Compound 166]	219.07 per cent fraction of low control	–	–	EC50 [1]: 33.3 nM
CCC1=C(C(=O)OCCOC)C(c2ccccc2F)c2c(sc(C(=O)c3cccc(Cl)c3)c2N)N1 (single isomer, unassigned) [Compound 179]	237.11 ± 19.59 per cent fraction of low control	–	–	–
CCC1=C(C(=O)OCCOC)C(c2ccnc(F)c2)c2c(sc(C(=O)c3cccc(Cl)c3)c2N)N1 (single isomer, unassigned) [Compound 183]	284.35 ± 38.37 per cent fraction of low control	–	–	–
CCC1=C(C(=O)OCCOC)C(c2ccccc2F)c2c(sc(C(=O)c3cccc(Cl)c3)c2N)N1 (single isomer, unassigned) [Compound 187]	162.93 ± 10.10 per cent fraction of low control	–	–	–

SMILES	Max Plateau [2]	EC50 [5]	Max Plateau [6]	further results
CCC1=C(C(=O)OCCOC)C(c2ccnc(F)c2)c2c(sc(C(=O)c3cccc(Cl)c3)c2N)N1 (single isomer, unassigned) [Compound 191]	263.67 ± 1.13 per cent fraction of low control	–	–	–
CC(=O)C1=C(C)Nc2sc(C(=O)c3ccc(Cl)c(Cl)c3)c(N)c2C1c1ccccc1 (centres unmarked) [Compound 2]	–	177 nM	207.74 ± 23.00 per cent fraction of low control	–
CC(=O)C1=C(C)Nc2sc(C(=O)c3ccccc3)c(N)c2C1c1ccccc1 (centres unmarked) [Compound 3]	–	797 nM	250.88 ± 32.62 per cent fraction of low control	–
CC(=O)C1=C(C)Nc2sc(C(=O)c3cccc([N+](=O)[O-])c3)c(N)c2C1c1ccccc1Cl (centres unmarked) [Compound 4, 1-[3-amino-4-(2-chloro-phenyl)-6-methyl-2-(3-nitro-benzoyl)-4,7dihydro-thieno[2,3-b]pyridin-5-yl]-ethanone]	–	–	244.20 ± 37.25 per cent fraction of low control	–
CC(=O)C1=C(C)Nc2sc(C(=O)c3cccnc3)c(N)c2C1c1ccccc1 (centres unmarked) [Compound 5]	–	2330 nM	286.43 ± 42.04 per cent fraction of low control	–
CC(=O)C1=C(C)Nc2sc(C(=O)c3cccc(Br)c3)c(N)c2C1c1ccccc1 (centres unmarked) [Compound 6]	–	48.9 nM	289.34 ± 70.69 per cent fraction of low control	–
CC(=O)C1=C(C)Nc2sc(C(=O)c3ccc(C)c(C)c3)c(N)c2C1c1ccccc1 (centres unmarked) [Compound 8]	–	797 nM	172.29 ± 9.66 per cent fraction of low control	–
CC(=O)C1=C(C)Nc2sc(C(=O)c3cccc([N+](=O)[O-])c3)c(N)c2C1c1ccc(C(=O)O)cc1 (centres unmarked) [Compound 9]	–	–	100.00 ± 0.00 per cent fraction of low control	–
CC(=O)C1=C(C)Nc2sc(C(=O)c3ccncc3)c(N)c2C1c1ccccc1 (centres unmarked) [Compound 10]	–	2680 nM	210.00 ± 36.06 per cent fraction of low control	–
CC(=O)C1=C(C)Nc2sc(C(=O)c3ccc(Cl)c(Cl)c3)c(N)c2C1c1ccccc1Cl (centres unmarked) [Compound 13]	–	82.5 nM	–	–
COc1ccc(C2C(C(C)=O)=C(C)Nc3sc(C(=O)c4ccccc4)c(N)c32)cc1 (centres unmarked) [Compound 14]	–	3030 nM	182.73 ± 26.95 per cent fraction of low control	–
COc1cccc(C2C(C(C)=O)=C(C)Nc3sc(C(=O)c4ccccc4)c(N)c32)c1 (centres unmarked) [Compound 15]	–	–	126.50 ± 24.27 per cent fraction of low control	–
CC(=O)C1=C(C)Nc2sc(C(=O)c3ccccn3)c(N)c2C1c1ccccc1 (centres unmarked) [Compound 16]	–	4290 nM	163.33 ± 32.15 per cent fraction of low control	–
COc1ccccc1C1C(C(C)=O)=C(C)Nc2sc(C(=O)c3ccccc3)c(N)c21 (centres unmarked) [Compound 18]	–	876 nM	215.25 ± 44.08 per cent fraction of low control	–
CC(=O)C1=C(C)Nc2sc(C(=O)c3ccccc3)c(N)c2C1c1ccncc1 (centres unmarked) [Compound 19]	–	3390 nM	260.00 ± 36.06 per cent fraction of low control	–
CC(=O)C1=C(C)Nc2sc(C(=O)c3ccccc3)c(N)c2C1c1cccnc1 (centres unmarked) [Compound 20]	–	–	127.35 ± 23.71 per cent fraction of low control	–
CC(=O)C1=C(C)Nc2sc(C(=O)c3ccccc3)c(N)c2C1c1ccc(Cl)cc1 (centres unmarked) [Compound 21]	–	583 nM	193.20 ± 49.26 per cent fraction of low control	–
